Source: patent US12534444B2, “Treatment of cancer/inhibition of metastasis” (Celex Oncology Innovations Limited, priority 2010, dated 2026)

Tests used:
[1] = test system: MDA-MB-231 cells; experiment: Transverse migration assay (Transwell); assay type: cell-based, human
Description: This assay was used to represent the ability of cells to migrate as they intra/extravasate. […] The insert 602 has a migration filter membrane 605 in its base with 8 μm pores 606 extending therethrough.
Cells 607 were plated at a density of 2×10^4/ml on the filter membrane 605 and placed under a growth medium 608 containing 1% foetal bovine serum (FBS). A chemotactic gradient was created across the filter membrane 605 by placing growth medium 609 containing 10% FBS in the lower section 604 of the chamber.
Cells were allowed to migrate across the filter membrane 605 over a period of 24 hours, cells migrating and adhering to the underside of the filter membrane 605.
At the end of each assay, non-migrated cells were removed from the upper surface of the insert 602 with two different swabs
The number of cells migrating to the underside of the insert 602 was determined using crystal violet staining. Migrated cells were fixed for 15 minutes with ice-cold methanol. Then 0.5% crystal violet (in 25% methanol) was added for 15 minutes. The inserts were swabbed again and then washed in water and allowed to dry. Cells were then counted using twelve separate fields of view per insert (×200 magnification).
(§1) With the exception of single cell adhesion tests, which are discussed in the following paragraph, experiments were carried out under either; • (i) normal normoxic conditions ([…], 5% carbon dioxide), or • (ii) following 24 hours hypoxic pre-treatment (2% O2, 5% CO2, 93% N2) continued during the assays.

[2] = test system: MDA-MB-231 cells; experiment: Invasion assay (Matrigel Transwell); assay type: cell-based, human
Excerpt: This assay is an extension of the transverse migration assay described above. To “invade”, the cells need both (i) to move as in the transverse migration assay and (ii) secrete a proteolytic enzyme to digest their surroundings. The ability of cells to invade neighbouring tissues by enzyme secretion was therefore assessed by using a layer of Matrigel™ (BD Biosciences) spread across the porous membrane of a Transwell® insert.
FIG. 7 is a schematic side sectional view of an invasion chamber 701 having a Transwell® insert 702 separating the chamber into upper 703 and lower 704 sections. The insert 702 has a migration filter membrane 705 in its base with 8 μm pores 706 extending therethrough. A layer 707 of Matrigel™ is shown coating the filter membrane 705.
Cells 708 were plated at a density of 2×10^4/ml onto the Matrigel™ layer 707 in 24-well plates (Becton-Dickinson) according to the manufacturers' instructions. 50 μl Matrigel™ was seeded at a 1:7 dilution (10 mg/ml stock) onto the inserts and left overnight. Prior to seeding with the cells the Matrigel™ was rehydrated using medium with no additions. This medium was removed prior to seeding the cells.
Cells were plated in a 1-5% FBS chemotactic gradient overnight (12 hours). The nutrient concentration in the medium 709 in the upper section 703 of the chamber was less than the concentration of nutrient in the medium 710 in the lower section 704 to induced movement of the cells through the Matrigel™ layer 707 and through the pores 706 to the underside of the filter membrane 705. At the end of each assay, non-invaded/non-migrated cells were removed from the upper surface of the insert 702 with two different swabs.
The number of cells invading to the underside of the insert 702 was determined using crystal violet staining. Invaded cells were fixed for 15 minutes with ice-cold methanol. Then 0.5% crystal violet (in 25% methanol) was added for 15 minutes. The inserts were swabbed again and then washed in water and allowed to dry. Cells were then counted using twelve separate fields of view per insert (×200 magnification). If the difference in the average number of cells invading the two control inserts was more than 40%, the experiment was rejected.
as §1

[3] = test system: MDA-MB-231 cells; experiment: Cell growth (proliferation) assay (MTT); assay type: cell-based, human; settings: for PROLIFERATION (24 hours) / growth (number of cells): Normoxia; for growth (number of cells): 48 hours
Description: Cells were plated at 2×10^4 cells/ml in 24-well plates (Becton-Dickinson) and allowed to settle overnight. The cells were then treated for the required time of incubation (24 hours+), with medium changes every 24 hours. At the end of the treatment, the medium was removed, and this was followed by the colorimetric 3-[4,5-dimethylthiazol-2-yl]-2,5-diphenyltetrazolium bromide (MTT) assay (Grimes et al., 1995). Briefly, 0.1 ml MTT (5 mg/ml made up in the growth medium) and 0.4 ml growth medium was added in each well and the plate was incubated for 3-4 hours at 37° C. The medium was then removed from the chambers and replaced with 0.5 ml dimethyl sulfoxide (DMSO) and 0.063 ml glycine buffer (0.1 M glycine and 0.1 M NaCl; pH 10.5). Absorbance at 570 nm was determined 15 minutes after the addition of the glycine buffer. Results were calculated as means of nine repeats of each of the treatment vs. control spectrophotometer readings from individual invasion wells.
as §1

[4] = test system: Mat-LyLu cells; experiment: Cell viability assay (trypan blue); assay type: cell-based, rat; settings: 24 hours
Description: Cells were seeded at a density of 5×10^4 cells/ml in 35 mm Falcon tissue culture dishes. After treatment with a given drug, the medium was removed and replaced with 800 μl of growth medium and 200 μl 0.4% trypan blue (Sigma, Dorset, UK) and incubated for 10 minutes in the incubator. The trypan blue was removed and the cells were washed once with 3 ml growth medium. For each treatment, cells from 30 random fields of view were counted under 100× magnification. The number of dead cells, stained blue, was counted in each field of view. The data were expressed as percentages of living cells out of the total number of cells in given fields of view. The percentages were averaged and differences between control and treatment were compared from at least three independent experiments.
as §1

[5] = Hypoxia, 10 μM, listed as RANOLAZINE
[6] = Normoxia, 10 μM, listed as RANOLAZINE

COc1ccccc1OCC(O)CN1CCN(CC(=O)Nc2c(C)cccc2C)CC1 (stereo not shown) [ranolazine]
TRANSVERSE MIGRATION ([1]; Hypoxia, 1 μM): reduced the transverse migration of the cells in a statistically significant way | TRANSVERSE MIGRATION ([1]; Hypoxia, 1 μM, listed as RANOLAZINE): decreased | TRANSVERSE MIGRATION ([1]; Hypoxia, 10 μM): reduced the transverse migration of the cells in a statistically significant way | TRANSVERSE MIGRATION [1, 5]: decreased | TRANSVERSE MIGRATION ([1]; Hypoxia, 100 μM): the reduction was not statistically significant | TRANSVERSE MIGRATION ([1]; Hypoxia, 100 μM, listed as RANOLAZINE): decreased | TRANSVERSE MIGRATION ([1]; Normoxia, 1 μM): reduced the transverse migration of the cells only slightly | TRANSVERSE MIGRATION ([1]; Normoxia, 1 μM, listed as RANOLAZINE): increased | TRANSVERSE MIGRATION ([1]; Normoxia, 10 μM): reduced the transverse migration of the cells only slightly | TRANSVERSE MIGRATION [1, 6]: decreased | TRANSVERSE MIGRATION ([1]; Normoxia, 100 μM): reduced the transverse migration of the cells only slightly | TRANSVERSE MIGRATION ([1]; Normoxia, 100 μM, listed as RANOLAZINE): decreased | INVASIVENESS (no pretreatment) ([2]; Hypoxia, 5 μM): not statistically significant | INVASIVENESS (pretreatment) ([2]; Hypoxia, 5 μM, 72 hours pretreatment): very significant reduction | INVASIVENESS (pretreatment) ([2]; Hypoxia, 5 μM, 72 hours pretreatment, listed as RANOLAZINE): decreased | INVASIVENESS (no pretreatment) ([2]; Hypoxia, 5 μM, listed as RANOLAZINE): no benefit | INVASIVENESS (no pretreatment) ([2]; Hypoxia, 10 μM): not statistically significant | INVASIVENESS (no pretreatment) [2, 5]: decreased | INVASIVENESS (no pretreatment) ([2]; Hypoxia, 20 μM): reduced the migration of the cells | INVASIVENESS (no pretreatment) ([2]; Hypoxia, 20 μM, listed as RANOLAZINE): no benefit | INVASIVENESS (no pretreatment) ([2]; Hypoxia, 25 μM): less invasive than untreated cells in a statistically significant way | INVASIVENESS (pretreatment) ([2]; Hypoxia, 25 μM, 48 hours): decreased | INVASIVENESS (pretreatment) ([2]; Hypoxia, 25 μM, 72 hours): decreased | INVASIVENESS (no pretreatment) ([2]; Hypoxia, 25 μM, listed as RANOLAZINE): decreased | invasiveness (pre-treatment) ([2]; Hypoxia, 25 μM, pre-treated for 24 hours before the 24 hour long assay): significantly less invasive | invasiveness (pre-treatment) ([2]; Hypoxia, 25 μM, pre-treated for 48 hours before the 24 hour long assay): significantly less invasive | INVASIVENESS (no pretreatment) ([2]; Hypoxia, 50 μM): reduced the migration of the cells | INVASIVENESS (no pretreatment) ([2]; Hypoxia, 50 μM, listed as RANOLAZINE): decreased | INVASIVENESS (no pretreatment) ([2]; Hypoxia, 300 μM): reduced the migration of the cells | INVASIVENESS (no pretreatment) ([2]; Hypoxia, 300 μM, listed as RANOLAZINE): decreased | INVASIVENESS (no pretreatment) ([2]; Normoxia, 10 μM): reduced the migration of the cells | INVASIVENESS (no pretreatment) [2, 6]: decreased | INVASIVENESS (no pretreatment) ([2]; Normoxia, 20 μM): reduced the migration of the cells | INVASIVENESS (no pretreatment) ([2]; Normoxia, 20 μM, listed as RANOLAZINE): decreased | INVASIVENESS (no pretreatment) ([2]; Normoxia, 50 μM): not statistically significant | INVASIVENESS (no pretreatment) ([2]; Normoxia, 50 μM, listed as RANOLAZINE): no effect | INVASIVENESS (no pretreatment) ([2]; Normoxia, 300 μM): reduced the migration of the cells | INVASIVENESS (no pretreatment) ([2]; Normoxia, 300 μM, listed as RANOLAZINE): decreased | potency on invasiveness compared with positive control TTX ([2]; higher concentrations tested, TTX 10 μmol): more potent than the toxin (TTX) | growth ([3]; Hypoxia, same concentrations (1 μM, 10 μM and 100 μM), results not shown): did not affect the growth | PROLIFERATION (24 hours) ([3]; 1 μM): no significant difference | PROLIFERATION (24 hours) ([3]; 1 μM, listed as RANOLAZINE): no effect | growth (number of cells) ([3]; 1 μM): no statistically significant difference | PROLIFERATION (24 hours) ([3]; 10 μM): no significant difference | PROLIFERATION (24 hours) ([3]; 10 μM, listed as RANOLAZINE): no effect | growth (number of cells) ([3]; 10 μM): no statistically significant difference | PROLIFERATION (24 hours) ([3]; 100 μM): no significant difference | PROLIFERATION (24 hours) ([3]; 100 μM, listed as RANOLAZINE): no effect | growth (number of cells) ([3]; 100 μM): no statistically significant difference | CELL VIABILITY ([4]; Hypoxia, 20 μM): no effect | CELL VIABILITY ([4]; Hypoxia, 50 μM): no effect | CELL VIABILITY ([4]; Hypoxia, 300 μM): no effect | CELL VIABILITY ([4]; Normoxia, 20 μM): no effect | CELL VIABILITY ([4]; Normoxia, 50 μM): no effect | CELL VIABILITY ([4]; Normoxia, 300 μM): no effect
